Experimental data taken from ChEMBL document CHEMBL4000195, “Design and synthesis of novel 7-aminosubstituted pyrido[2,3-b]pyrazines exhibiting anti-breast cancer activity” (Eur J Med Chem, 2017).
Activity calls are given as the source filed them. The rule behind the calls is not given here.

What was measured:
MDA-MB-231 [1] = assay: Cytotoxicity against human MDA-MB-231 cells at 10 uM by MTT assay; assay type: functional
T47D [2] = assay: Cytotoxicity against human T47D cells at 10 uM by MTT assay; assay type: functional
HCC1954 [3] = assay: Cytotoxicity against human HCC1954 cells at 10 uM by MTT assay; assay type: functional
HCC1954 [4] = assay: Cytotoxicity against human HCC1954 cells at 5 uM by MTT assay; assay type: functional
MCF7 [5] = assay: Cytotoxicity against human MCF7 cells at 5 uM by MTT assay; assay type: functional
MCF7 [6] = assay: Cytotoxicity against human MCF7 cells at 10 uM by MTT assay; assay type: functional
MDA-MB-231 [7] = assay: Cytotoxicity against human MDA-MB-231 cells at 5 uM by MTT assay; assay type: functional
T47D [8] = assay: Cytotoxicity against human T47D cells at 5 uM by MTT assay; assay type: functional
[9] = biological target: Mast/stem cell growth factor receptor Kit (Homo sapiens) (UniProt P10721); assay: Inhibition of recombinant human GST-tagged KIT (544-end residues) transphosphorylation activity expressed in baculovirus infected Sf9 cells using poly[Glu:Tyr] (4:1) as substrate after 60 mins
[10] = biological target: T1, Serine/threonine-protein kinase haspin (Homo sapiens) (UniProt Q8TF76); assay: Inhibition of human HASPIN
T1 sequence (whole entry): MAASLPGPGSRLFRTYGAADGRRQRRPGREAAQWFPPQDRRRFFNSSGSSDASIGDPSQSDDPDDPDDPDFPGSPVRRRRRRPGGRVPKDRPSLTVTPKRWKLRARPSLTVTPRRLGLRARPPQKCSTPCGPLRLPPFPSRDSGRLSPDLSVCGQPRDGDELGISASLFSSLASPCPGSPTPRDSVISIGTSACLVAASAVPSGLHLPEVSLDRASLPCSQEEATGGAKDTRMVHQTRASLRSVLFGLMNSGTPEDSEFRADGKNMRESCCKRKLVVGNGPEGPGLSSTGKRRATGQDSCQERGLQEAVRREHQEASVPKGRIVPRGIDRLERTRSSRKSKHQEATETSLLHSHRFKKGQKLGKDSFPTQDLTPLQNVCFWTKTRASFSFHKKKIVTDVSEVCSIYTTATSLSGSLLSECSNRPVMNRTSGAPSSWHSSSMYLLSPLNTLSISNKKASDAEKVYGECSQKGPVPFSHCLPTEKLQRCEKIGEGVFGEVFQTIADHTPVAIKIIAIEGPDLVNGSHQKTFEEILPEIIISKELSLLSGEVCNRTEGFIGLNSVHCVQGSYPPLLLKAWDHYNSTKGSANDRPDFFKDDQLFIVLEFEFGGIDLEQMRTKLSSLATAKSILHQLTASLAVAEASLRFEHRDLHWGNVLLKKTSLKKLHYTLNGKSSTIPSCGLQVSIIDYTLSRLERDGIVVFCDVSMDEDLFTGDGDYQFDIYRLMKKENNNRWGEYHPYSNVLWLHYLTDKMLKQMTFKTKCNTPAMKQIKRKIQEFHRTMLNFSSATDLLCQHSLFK

[11] = biological target: Dual specificity tyrosine-phosphorylation-regulated kinase 1A (Rattus norvegicus) (UniProt Q63470); assay: Inhibition of rat DYRK1A using myelin basic protein as substrate in presence of [gamma33P]ATP after 30 mins by scintillation counting method
Sus scrofa = organism: Sus scrofa; assay: Inhibition of pig CK1delta/epsilon
[12] = biological target: Cyclin-dependent kinase 5/CDK5 activator 1 (Homo sapiens) (UniProt Q00535+Q15078); assay: Inhibition of human CDK5/p25 using histone H1 as substrate in presence of [gamma33P]ATP after 30 mins by scintillation counting method; assay type: protein-complex assay
[13] = biological target: Dual specificity protein kinase CLK1 (Mus musculus) (UniProt P22518); assay: Inhibition of mouse CLK1
[14] = biological target: Receptor-interacting serine/threonine-protein kinase 3 (Homo sapiens) (UniProt Q9Y572); assay: Inhibition of human RIPK3
[15] = biological target: Aurora kinase B/Inner centromere protein (Homo sapiens) (UniProt Q96GD4+Q9NQS7); assay: Inhibition of human AURKB/INCENP; assay type: protein-complex assay
[16] = biological target: Vascular endothelial growth factor receptor 2 (Homo sapiens) (UniProt P35968); assay: Inhibition of recombinant human GST-tagged VEGFR-2 (789-end residues) transphosphorylation activity expressed in baculovirus infected Sf9 cells using poly[Glu:Tyr] (4:1) as substrate after 60 mins
[17] = biological target: Receptor-type tyrosine-protein kinase FLT3 (Homo sapiens) (UniProt P36888); assay: Inhibition of recombinant human GST-tagged FLT3 (571 to 993 residues) transphosphorylation activity expressed in baculovirus infected Sf9 cells using poly[Glu:Tyr] (4:1) as substrate after 60 mins
SK-BR-3 = assay: Cytotoxicity against human SKBR3 cells by MTT assay; assay type: functional, cell-based
T47D [18] = assay: Cytotoxicity against human T47D cells by MTT assay; assay type: functional, cell-based
HCC1954 [19] = assay: Cytotoxicity against human HCC1954 cells by MTT assay; assay type: functional, cell-based
MDA-MB-231 [20] = assay: Cytotoxicity against human MDA-MB-231 cells by MTT assay; assay type: functional, cell-based
[21] = biological target: Phosphatidylinositol 4,5-bisphosphate 3-kinase catalytic subunit alpha isoform (Homo sapiens, UniProt P42336); assay: Inhibition of PI3Kalpha catalytic domain (unknown origin) using PIP2 liposomes as substrate in presence of biotin-labeled PIP3 and GST-GRP1-PH by streptavidin-HRP based assays
MCF7 [22] = assay: Cytotoxicity against human MCF7 cells by MTT assay; assay type: functional, cell-based
[23] = biological target: Platelet-derived growth factor receptor beta (Homo sapiens) (UniProt P09619); assay: Inhibition of recombinant human GST-tagged PDGFR-beta (557-end residues) transphosphorylation activity expressed in baculovirus infected Sf9 cells using poly[Glu:Tyr] (4:1) as substrate after 60 mins
[24] = biological target: Glycogen synthase kinase-3 (Sus scrofa) (UniProt B2LUN4+I6LNT8); assay: Inhibition of pig GSK3alpha/beta using GS-1 as substrate in presence of [gamma33P]ATP after 30 mins by scintillation counting method

Dual specificity protein kinase CLK1 (Mus musculus), sequence (P22518 whole entry, looked up): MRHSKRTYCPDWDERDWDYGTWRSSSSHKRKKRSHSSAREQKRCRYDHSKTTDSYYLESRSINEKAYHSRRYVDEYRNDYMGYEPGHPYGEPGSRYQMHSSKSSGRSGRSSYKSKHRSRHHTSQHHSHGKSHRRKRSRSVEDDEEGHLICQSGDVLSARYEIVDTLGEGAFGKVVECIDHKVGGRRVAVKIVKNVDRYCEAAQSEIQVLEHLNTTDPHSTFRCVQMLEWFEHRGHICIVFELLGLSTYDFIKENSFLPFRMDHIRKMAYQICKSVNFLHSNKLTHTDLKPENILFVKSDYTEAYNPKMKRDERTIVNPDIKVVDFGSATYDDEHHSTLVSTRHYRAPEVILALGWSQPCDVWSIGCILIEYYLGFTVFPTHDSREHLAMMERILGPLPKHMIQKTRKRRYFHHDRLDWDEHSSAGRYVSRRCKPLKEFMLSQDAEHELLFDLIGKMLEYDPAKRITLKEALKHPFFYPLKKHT
Vascular endothelial growth factor receptor 2 (Homo sapiens), sequence (P35968 whole entry, the tested form may be a part): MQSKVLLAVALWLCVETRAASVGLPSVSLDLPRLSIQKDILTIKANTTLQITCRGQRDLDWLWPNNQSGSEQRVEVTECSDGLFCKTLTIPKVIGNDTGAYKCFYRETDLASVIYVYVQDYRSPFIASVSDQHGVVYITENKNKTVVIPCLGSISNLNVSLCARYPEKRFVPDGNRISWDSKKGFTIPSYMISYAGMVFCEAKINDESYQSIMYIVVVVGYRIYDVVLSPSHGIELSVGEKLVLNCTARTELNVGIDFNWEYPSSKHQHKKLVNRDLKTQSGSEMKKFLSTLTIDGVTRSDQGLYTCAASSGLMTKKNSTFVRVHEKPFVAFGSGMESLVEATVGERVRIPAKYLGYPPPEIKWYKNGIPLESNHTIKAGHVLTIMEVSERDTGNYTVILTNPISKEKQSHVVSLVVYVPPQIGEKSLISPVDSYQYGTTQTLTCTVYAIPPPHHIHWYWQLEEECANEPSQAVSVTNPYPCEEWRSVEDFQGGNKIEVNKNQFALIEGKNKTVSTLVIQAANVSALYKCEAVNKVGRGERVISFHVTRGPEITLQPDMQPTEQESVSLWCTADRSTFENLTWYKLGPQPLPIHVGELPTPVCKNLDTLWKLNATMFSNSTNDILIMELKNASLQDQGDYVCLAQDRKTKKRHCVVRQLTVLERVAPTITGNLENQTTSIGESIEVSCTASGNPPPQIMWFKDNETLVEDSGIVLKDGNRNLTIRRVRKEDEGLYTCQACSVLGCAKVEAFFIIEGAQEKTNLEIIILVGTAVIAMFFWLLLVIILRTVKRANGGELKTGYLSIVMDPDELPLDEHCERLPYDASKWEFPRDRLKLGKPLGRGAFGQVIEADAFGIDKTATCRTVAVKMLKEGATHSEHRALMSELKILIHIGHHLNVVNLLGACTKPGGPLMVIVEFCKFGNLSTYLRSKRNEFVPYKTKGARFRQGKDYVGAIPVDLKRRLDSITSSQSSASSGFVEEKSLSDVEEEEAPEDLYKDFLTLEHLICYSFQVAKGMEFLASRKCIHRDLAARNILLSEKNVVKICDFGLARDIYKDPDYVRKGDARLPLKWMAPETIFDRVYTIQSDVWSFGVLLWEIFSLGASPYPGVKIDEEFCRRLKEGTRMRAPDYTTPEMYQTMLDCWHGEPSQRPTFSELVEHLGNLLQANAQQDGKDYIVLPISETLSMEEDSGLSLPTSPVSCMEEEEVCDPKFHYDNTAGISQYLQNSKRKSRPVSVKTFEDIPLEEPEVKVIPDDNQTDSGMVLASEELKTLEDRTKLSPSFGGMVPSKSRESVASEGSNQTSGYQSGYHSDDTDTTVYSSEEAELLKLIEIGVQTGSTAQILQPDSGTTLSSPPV
Cyclin-dependent kinase 5/CDK5 activator 1 (Homo sapiens), sequence (Q00535 whole entry): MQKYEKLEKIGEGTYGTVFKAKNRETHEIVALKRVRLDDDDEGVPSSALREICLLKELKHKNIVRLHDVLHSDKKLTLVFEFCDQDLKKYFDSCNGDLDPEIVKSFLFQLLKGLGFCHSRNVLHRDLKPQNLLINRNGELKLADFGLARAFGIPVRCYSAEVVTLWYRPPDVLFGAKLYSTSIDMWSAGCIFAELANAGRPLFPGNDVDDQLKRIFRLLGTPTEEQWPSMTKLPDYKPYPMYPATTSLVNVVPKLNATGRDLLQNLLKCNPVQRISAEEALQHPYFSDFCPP
Cyclin-dependent kinase 5/CDK5 activator 1 (Homo sapiens), sequence (Q15078 99-307 partner limits assumed): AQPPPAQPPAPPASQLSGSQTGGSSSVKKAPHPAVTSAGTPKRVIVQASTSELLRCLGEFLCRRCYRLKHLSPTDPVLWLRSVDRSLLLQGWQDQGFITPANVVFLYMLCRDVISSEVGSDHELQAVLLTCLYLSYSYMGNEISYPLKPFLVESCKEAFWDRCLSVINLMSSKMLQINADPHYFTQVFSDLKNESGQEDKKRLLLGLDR
Phosphatidylinositol 4,5-bisphosphate 3-kinase catalytic subunit alpha isoform, sequence (P42336 whole entry, the tested form may be a part, canonical isoform): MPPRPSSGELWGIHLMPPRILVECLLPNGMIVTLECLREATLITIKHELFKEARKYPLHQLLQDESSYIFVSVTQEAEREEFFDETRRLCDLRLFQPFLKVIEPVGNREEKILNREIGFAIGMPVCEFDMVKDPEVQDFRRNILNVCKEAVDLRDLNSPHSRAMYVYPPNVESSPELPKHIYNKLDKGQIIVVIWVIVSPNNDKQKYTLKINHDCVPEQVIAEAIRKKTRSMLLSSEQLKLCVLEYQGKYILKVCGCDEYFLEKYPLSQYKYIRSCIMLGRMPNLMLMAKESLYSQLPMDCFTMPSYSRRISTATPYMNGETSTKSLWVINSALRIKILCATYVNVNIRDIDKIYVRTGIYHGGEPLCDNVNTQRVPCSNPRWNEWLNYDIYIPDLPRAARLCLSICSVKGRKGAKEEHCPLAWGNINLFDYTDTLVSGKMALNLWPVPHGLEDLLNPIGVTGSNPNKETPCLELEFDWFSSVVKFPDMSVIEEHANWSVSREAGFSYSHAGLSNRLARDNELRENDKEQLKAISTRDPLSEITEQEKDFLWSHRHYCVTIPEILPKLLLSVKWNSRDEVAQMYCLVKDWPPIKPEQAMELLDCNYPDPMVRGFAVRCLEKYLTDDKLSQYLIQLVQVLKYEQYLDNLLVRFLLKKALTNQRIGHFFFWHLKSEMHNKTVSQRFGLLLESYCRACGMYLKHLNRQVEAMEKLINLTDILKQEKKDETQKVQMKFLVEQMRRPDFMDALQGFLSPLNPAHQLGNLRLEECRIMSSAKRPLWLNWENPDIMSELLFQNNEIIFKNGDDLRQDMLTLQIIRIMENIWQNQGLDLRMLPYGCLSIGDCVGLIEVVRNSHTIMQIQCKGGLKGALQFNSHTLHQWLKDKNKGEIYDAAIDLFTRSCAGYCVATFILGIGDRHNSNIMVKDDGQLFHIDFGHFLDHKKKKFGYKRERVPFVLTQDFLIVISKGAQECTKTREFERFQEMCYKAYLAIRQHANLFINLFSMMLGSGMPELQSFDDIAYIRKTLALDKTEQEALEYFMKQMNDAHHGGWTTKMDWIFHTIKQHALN
Receptor-type tyrosine-protein kinase FLT3 (Homo sapiens), sequence (P36888 whole entry, the tested form may be a part): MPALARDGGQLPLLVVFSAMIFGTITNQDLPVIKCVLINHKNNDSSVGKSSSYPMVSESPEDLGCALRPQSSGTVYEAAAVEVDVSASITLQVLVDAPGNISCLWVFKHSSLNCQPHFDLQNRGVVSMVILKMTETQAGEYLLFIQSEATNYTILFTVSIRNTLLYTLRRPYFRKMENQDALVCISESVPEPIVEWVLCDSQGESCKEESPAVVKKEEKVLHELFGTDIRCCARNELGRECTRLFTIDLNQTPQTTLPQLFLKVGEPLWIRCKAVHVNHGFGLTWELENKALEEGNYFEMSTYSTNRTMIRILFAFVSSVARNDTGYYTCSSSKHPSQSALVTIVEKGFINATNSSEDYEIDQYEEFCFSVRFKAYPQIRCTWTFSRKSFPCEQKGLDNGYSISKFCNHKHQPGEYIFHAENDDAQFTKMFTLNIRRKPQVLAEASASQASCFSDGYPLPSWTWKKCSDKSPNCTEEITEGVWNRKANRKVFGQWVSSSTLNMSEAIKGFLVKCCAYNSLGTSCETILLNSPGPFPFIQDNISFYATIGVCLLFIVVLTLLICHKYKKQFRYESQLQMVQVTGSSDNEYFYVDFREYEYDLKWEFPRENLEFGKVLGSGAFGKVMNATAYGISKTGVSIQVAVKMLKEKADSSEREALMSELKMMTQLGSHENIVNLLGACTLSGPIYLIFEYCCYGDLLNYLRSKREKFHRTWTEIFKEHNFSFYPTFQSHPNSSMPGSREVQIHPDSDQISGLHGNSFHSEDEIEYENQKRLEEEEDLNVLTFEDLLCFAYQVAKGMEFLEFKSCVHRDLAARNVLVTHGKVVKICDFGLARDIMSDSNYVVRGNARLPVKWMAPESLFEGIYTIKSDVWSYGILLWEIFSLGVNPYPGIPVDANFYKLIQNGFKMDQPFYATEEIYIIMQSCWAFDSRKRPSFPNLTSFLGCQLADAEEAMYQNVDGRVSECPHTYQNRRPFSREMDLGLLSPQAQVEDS
Receptor-interacting serine/threonine-protein kinase 3 (Homo sapiens), sequence (Q9Y572 whole entry, looked up): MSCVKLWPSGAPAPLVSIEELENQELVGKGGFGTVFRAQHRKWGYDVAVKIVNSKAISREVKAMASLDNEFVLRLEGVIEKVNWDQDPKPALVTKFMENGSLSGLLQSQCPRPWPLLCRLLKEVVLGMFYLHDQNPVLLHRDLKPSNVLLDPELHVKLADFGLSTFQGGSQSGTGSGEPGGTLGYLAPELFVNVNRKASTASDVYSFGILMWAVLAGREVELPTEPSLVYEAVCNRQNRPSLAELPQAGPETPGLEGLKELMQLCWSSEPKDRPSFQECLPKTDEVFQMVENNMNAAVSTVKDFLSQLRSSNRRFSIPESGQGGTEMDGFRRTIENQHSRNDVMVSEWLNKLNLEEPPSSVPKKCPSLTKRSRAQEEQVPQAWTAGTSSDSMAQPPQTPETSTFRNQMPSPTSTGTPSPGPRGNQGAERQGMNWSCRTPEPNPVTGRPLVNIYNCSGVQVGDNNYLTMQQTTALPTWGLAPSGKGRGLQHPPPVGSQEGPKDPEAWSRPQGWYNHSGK

Compound	Activity (MDA-MB-231 [1]) [%]	Activity (T47D [2]) [%]	Activity (HCC1954 [3]) [%]	Activity (HCC1954 [4]) [%]	Activity (MCF7 [5]) [%]	Activity (MCF7 [6]) [%]	Activity (MDA-MB-231 [7]) [%]	Activity (T47D [8]) [%]	other results
Cc1nc2nc(Sc3ccccc3)cnc2cc1NC(=O)CN1CCN(C)CC1	<50	<50	<50	<50	<50	<50	<50	<50	
Cc1nc2nc(Sc3ccccc3)cnc2cc1NC(=O)c1ccccc1C(F)(F)F	<50	<50	<50	<50	<50	<50	<50	<50	
Cc1nc2nc(Sc3ccccc3)cnc2cc1N	<50	<50	<50	<50	<50	<50	<50	<50	
Cc1nc2nc(Sc3ccccc3)cnc2cc1NC(=O)c1ccc([N+](=O)[O-])cc1	<50	<50	<50	<50	<50	<50	<50	<50	
Cc1nc2nc(Sc3ccccc3)cnc2cc1NC(=O)CN(C)C	<50	<50	<50	<50	<50	<50	<50	<50	
COc1cc(C(=O)Nc2cc3nccnc3nc2C)cc(OC)c1OC	<50	<50	<50	<50	<50	<50	<50	<50	
Cc1nc2nccnc2cc1NC(=O)CN(C)C	<50	<50	<50	<50	<50	<50	<50	<50	
Cc1nc2nc(Oc3ccccc3)cnc2cc1NC(=O)Nc1ccccc1	>50	>50	>50	>50	>50	>50	>50	>50	inhibition [9]: inactive; inhibition [10]: inactive; inhibition [11]: inactive; inhibition (Sus scrofa): inactive; inhibition [12]: inactive; inhibition [13]: inactive; inhibition [14]: inactive; inhibition [15]: inactive; inhibition [16]: inactive; inhibition [17]: inactive; IC50 (SK-BR-3): 7.2 µM; IC50 (T47D [18]): 9.4 µM; IC50 (HCC1954 [19]): 5.3 µM; IC50 (MDA-MB-231 [20]): 5.1 µM; inhibition [21]: inactive; IC50 (MCF7 [22]): 7 µM; inhibition [23]: inactive; inhibition [24]: inactive
Cc1nc2nccnc2cc1NC(=O)c1ccccc1	<50	<50	<50	<50	<50	<50	<50	<50	
Cc1nc2nc(Sc3ccccc3)cnc2cc1NC(=O)c1cccc(C(F)(F)F)c1	<50	<50	<50	<50	<50	<50	<50	<50	
